# From ChEMBL document CHEMBL1128242, “Polyiodinated triglyceride analogs as potential computed tomography imaging agents for the liver” (J Med Chem, 1995)
# Several values for one entry are separate records, joined by “and”; a condition that tells them apart may be missing. Equal entries are not always repeated.
# How the values were obtained:
# Rattus norvegicus [1] = assay: Distribution of radioactivity was determined in liver at 3h after intravenous administration of 1,3-Disubstituted Triacylglycerols in rats; type: ADME, organism-based; conditions: in vivo
# Rattus norvegicus [2] = assay: Distribution of radioactivity was determined in spleen at 24 hr after intravenous administration of [125I]-labeled 2-oleoglycerol 1,3-Bis-[omega-(3-amino-2,4,6-triiodophenyl)alkanoates] in rats; type: ADME, organism-based; conditions: in vivo
# Rattus norvegicus [3] = assay: Distribution of radioactivity was determined in plasma at 3h after intravenous administration of [125I]-labeled 2-oleoglycerol 1,3-Bis-[omega-(3-amino-2,4,6-triiodophenyl)alkanoates] in rats; type: ADME, organism-based; conditions: in vivo
# Rattus norvegicus [4] = assay: Distribution of radioactivity was determined in liver at 24 hr after intravenous administration of [125I]-labeled 2-oleoglycerol 1,3-Bis-[omega-(3-amino-2,4,6-triiodophenyl)alkanoates] in rats; type: ADME, organism-based; conditions: in vivo
# Rattus norvegicus [5] = assay: Distribution of radioactivity was determined in blood at 30 min after intravenous administration of 1,3-Disubstituted Triacylglycerols in rats; type: ADME, organism-based; conditions: in vivo, 0.5 h
# Rattus norvegicus [6] = assay: Analysis of lipid-soluble radioactivity in liver 0.5 hour after iv administration of [125I]-labeled 2-Oleoyl 1,3-disubstituted Triacylglycerols expressed as %parent compound (by TLC with authentic [125I]-labeled standard) from rat; type: ADME, organism-based; conditions: in vivo
# Rattus norvegicus [7] = assay: Distribution of radioactivity was determined in plasma at 24 hr after intravenous administration of [125I]-labeled 2-oleoglycerol 1,3-Bis-[omega-(3-amino-2,4,6-triiodophenyl)alkanoates] in rats; type: ADME, organism-based; parameters: unit not given here; conditions: in vivo
# Rattus norvegicus [8] = assay: Polyacrylamide Gel Electrophoresis (PAGE) to determined the concentration of high density lipoprotein (HDL) in rats after iv administration of [125I]-labeled 2-Oleolyl 1,3-disubstituted triglycerols was reported; type: ADME, organism-based; conditions: in vivo
# Rattus norvegicus [9] = assay: Distribution of radioactivity was determined in thyroid at 24 hr after intravenous administration of [125I]-labeled 2-oleoglycerol 1,3-Bis-[omega-(3-amino-2,4,6-triiodophenyl)alkanoates] in rats; type: ADME, organism-based, Thyroid gland; conditions: in vivo
# Rattus norvegicus [10] = assay: Distribution of radioactivity was determined in liver at 30 min after intravenous administration of [125I]-labeled 2-oleoglycerol 1,3-Bis-[omega-(3-amino-2,4,6-triiodophenyl)alkanoates] in rats; type: ADME, organism-based; conditions: in vivo, 0.5 h
# Rattus norvegicus [11] = assay: Distribution of radioactivity was determined in liver at 24 hr after intravenous administration of 1,3-Disubstituted Triacylglycerols in rats; type: ADME, organism-based; conditions: in vivo
# Rattus norvegicus [12] = assay: Analysis of lipid-soluble radioactivity in plasma 0.5 hour after iv administration of [125I]-labeled 2-Oleoyl 1,3-disubstituted Triacylglycerols and represented as % CHCl3/CH3OH from rat; type: ADME, organism-based; conditions: in vivo
# Rattus norvegicus [13] = assay: Distribution of radioactivity was determined in lung at 3h after intravenous administration of [125I]-labeled 2-oleoglycerol 1,3-Bis-[omega-(3-amino-2,4,6-triiodophenyl)alkanoates] in rats; type: ADME, organism-based; conditions: in vivo
Distribution of radioactivity (Rattus norvegicus [1]) [% dose/organ],Distribution of radioactivity (Rattus norvegicus [2]) [% dose/g],Distribution of radioactivity (Rattus norvegicus [3]) [% dose/g],Distribution of radioactivity (Rattus norvegicus [4]) [% dose/g],Distribution of radioactivity (Rattus norvegicus [5]) [% dose/organ],Lipid-soluble radioactivity (Rattus norvegicus [6]),Distribution of radioactivity (Rattus norvegicus [7]),Radioactivity (Rattus norvegicus [8]) [%],Distribution of radioactivity (Rattus norvegicus [9]) [% dose/g],Distribution of radioactivity (Rattus norvegicus [10]) [% dose/g],Distribution of radioactivity (Rattus norvegicus [11]) [% dose/organ],Lipid-soluble radioactivity (Rattus norvegicus [12]),Distribution of radioactivity (Rattus norvegicus [13]) [% dose/g],Compound
45.8,1.43,0.29,1.1,6.6,91.9,0.21,0.3,6.53,7.23,9.6,36.1,0.34,CCCCCCCC/C=C/CCCCCCCC(=O)OC(COC(=O)CCCCCCc1c(I)cc(I)c(N)c1I)COC(=O)CCCCCCc1c(I)cc(I)c(N)c1I
79,24.2,0.07,9.09,7.6,85.1,0.01,0.7,2.58,7.9,72.5,54.2 and 86.3,0.38,CCCCCCCC/C=C/CCCCCCCC(=O)OC(COC(=O)Cc1c(I)cc(I)c(N)c1I)COC(=O)Cc1c(I)cc(I)c(N)c1I
66,10.4,0.24,4.2,4.8,96.8,0.14,7,5.13,7.01,34.9,89.9,0.21,CCCCCCCC/C=C/CCCCCCCC(=O)OC(COC(=O)CCCCCc1c(I)cc(I)c(N)c1I)COC(=O)CCCCCc1c(I)cc(I)c(N)c1I
60.7,13.7,0.09,4.53,0.9,98.9,0.14,5.5,6.74,7.37,36.1,77.4,0.46,CCCCCCCC/C=C/CCCCCCCC(=O)OC(COC(=O)CCCCc1c(I)cc(I)c(N)c1I)COC(=O)CCCCc1c(I)cc(I)c(N)c1I
80,21.7,0.03,10.2,2.6,78.6,0.01,2.5,17.3,9.67,77,88.2,0.2,CCCCCCCC/C=C/CCCCCCCC(=O)OC(COC(=O)C(CC)Cc1c(I)cc(I)c(N)c1I)COC(=O)C(CC)Cc1c(I)cc(I)c(N)c1I (stereo not given)
